In patent US10881644B2, “Treatment of asthma and chronic obstructive pulmonary disease with anti-proliferate and anti-inflammatory drugs” (Lutonix, Inc., priority 2006, dated 2021):
Each block holds one compound with its values, some of them ahead of it.

Legend:
[1] = Stability under ethylene oxide sterilization, heating and aging with paclitaxel; format: physicochemical; conditions: formulated with paclitaxel
[2] = Drug coated PTCA balloon catheter in pig blood vessels: residual drug on balloon and drug content in tissue by tissue extraction and HPLC; conditions: after only 0.2-2 minutes of deployment; substance used as additive in the drug coating
From the text: 6 PTCA balloon catheters (3.5 and 3.0 mm in diameter and 20 mm in length) were inflated at 1-3 atm. […] The sufficient amount of drug on the balloon (3 microgram per square mm) was obtained. The inflated balloon was folded, and then dried. The coated folded balloon was then rewrapped and sterilized for animal testing.
The coated PTCA balloon catheter was inserted into target site in the blood vessels (LAD, LCX and RCA) in the 25-45 ib pig was inflated to 12 atm. […] The drug was delivered into the target tissue in 30-60 seconds. The balloon catheter was then deflated and was withdrawn from the animal body. The target blood vessel was harvested at 0.25-24 hours after inflation. The drug content in the target tissue and the residual drug remained on the balloon were analyzed by tissue extraction and HPLC. In some of the animal tests the stent was crimped on the drug coated balloon catheters prior to deployment.
All data is the average of five or six experimental data points.

[3] = with the addition of BSA; cited from earlier work
[4] = tested on: albumin; conditions: cited from earlier work
[5] = 1 minute after intravenous injection in rats; cited from earlier work

stability under ethylene oxide sterilization, heating, and aging process [1]: not stable
Compound: O=C1O[C@H]([C@@H](O)CO)C(O)=C1O [ascorbic acid]

Compound: O=C(O)c1ccccc1 [benzoic acid]
stability under ethylene oxide sterilization, heating, and aging process [1]: not stable

stability under ethylene oxide sterilization, heating, and aging process [1]: not stable
Compound: OCCNCCO [diethanolamine]

stability under ethylene oxide sterilization, heating, and aging process [1]: not stable
Compound: O=C(O)c1cc(O)ccc1O [gentisic acid]

drug absorption by tissue / drug levels in tissue [2]: unexpectedly high
Compound: O=C1O[C@H](CO)[C@@H](O)[C@H](O)[C@H]1O [gluconolactone]

Compound: CC(=O)O[C@H]1C(=O)[C@@]2(C)[C@H]([C@H](OC(=O)c3ccccc3)[C@]3(O)C[C@H](OC(=O)[C@H](O)[C@@H](NC(=O)c4ccccc4)c4ccccc4)C(C)=C1C3(C)C)[C@]1(OC(C)=O)CO[C@@H]1C[C@@H]2O [paclitaxel]
increase of solubility in PBS [3]: over 20 fold

Compound: CO[C@H]1C[C@@H]2CC[C@@H](C)[C@@](O)(O2)C(=O)C(=O)N2CCCC[C@H]2C(=O)O[C@H]([C@H](C)C[C@@H]2CC[C@@H](O)[C@H](OC)C2)CC(=O)[C@H](C)/C=C(\C)[C@@H](O)[C@@H](OC)C(=O)[C@H](C)C[C@H](C)/C=C/C=C/C=C/1C [rapamycin]
protein bound [4]: 92%

Compound: O=C1O[C@H](CO)[C@@H](O)[C@H]1O [ribonic acid lactone]
drug absorption by tissue / drug levels in tissue [2]: unexpectedly high

Compound: I-iothalamate
share of myocardial content found in the extravascular space [5]: approximately 80%
